Test results as given in patent US8940766B2, “Methods for preventing and/or treating lysosomal storage disorders” (Amicus Therapeutics, Inc., priority 2009, dated 2015).

How the values were obtained:
Assay type in all cases: in vivo, mice (C57BL/6)
[1] = Blood brain barrier penetration after oral administration to mice; conditions: single 30 mg/kg (free base equivalent) p.o. dose, FIG. 2
Method: For this purpose, 8-week old wild-type male mice (C57BL/6) were administered a single 30 mg/kg (free base equivalent) p.o. dose of reference or test compound by gavage (n=3 mice per time point). Dosing solutions were prepared in water. After dosing, mice were euthanized with CO2 at the following time points: 0-, 0.5-, 1-, and 4-hour post-dose. […] Similarly, brains were collected from each mouse. Plasma was derived by spinning whole blood at 2700 g for 10 minutes at 4° C. followed by storage on dry ice. Whole brains were washed in cold PBS to remove contaminating blood, blotted dry, flash frozen on dry ice, and ultimately stored at −80° C. until analysis. To prepare brain samples for analysis, 50-100 mg of tissue was homogenized in […]. Samples were then clarified by centrifugation. Next, 25 μl of the brain homogenate supernatant or 25 μl of plasma were combined with 25 μl of acetonitrile:water (95/5). […] Between 20 and 30 μl sample was injected for analysis. […] When Compound B was analyzed, Compound A was used as internal standard (150.1/130.1). For calculating drug concentrations, raw data for plasma (ng/mL) and brain (ng/g) was converted to nM using the molecular weight of respective compounds and assuming 1 g of tissue is equivalent to 1 mL volume. Concentration as a function of time was plotted in GraphPad Prism version 4.02.

[2] = Compound concentration in brain, spleen and plasma samples of GCase enhancement study; conditions: nine doses
Method: (§1) The ability of orally administered test compounds (the hydrochloride salt form of Compound A and Compound B) to elevate GCase levels as compared to reference compound, IFG-tartrate, was assessed in mice. […] Seven animals were used per dose. The dosing solutions were prepared in water. Compounds were administered over 2 weeks as follows: week 1, Mon-Fri (On), Sat-Sun (Off); week 2, Mon-Thu (On); necropsy on Friday. Thus, a total of 9 doses (dosing solutions prepared fresh every day) were given to each mouse, with a 24-hour washout between the last dose and necropsy.
(§2) Plasma was collected by spinning blood at 2700 g for 10 minutes at 4° C. Liver, spleen, lung, and brain tissues were removed, washed in cold PBS, blotted dry, flash frozen on dry ice, and stored at −80° C. until analysis. GCase levels were measured by homogenizing approximately 50 mg tissue in 500 μL McIlvane (MI) buffer (100 mM sodium citrate, 200 mM sodium phosphate dibasic, 0.25% sodium taurocholate, and 0.1% Triton X-100, pH 5.2) at pH 5.2 for 3-5 seconds on ice with a micro homogenizer. Homogenates were then incubated at room temperature without and with 2.5 mM conduritol-B-epoxide (CBE) for 30 min. Finally, 3.7 mM 4-methylumbeliferryl-β-glucoside (4-MUG) substrate was added and incubated at 37° C. for 60 min. Reactions were stopped by addition of 0.4 M glycine, pH 10.6. Fluorescence was measured on a plate reader for 1 sec/well using 355 nm excitation and 460 nm emission. Total protein was determined in lysates using the MicroBCA kit according to the manufacturer's instructions. A 4-methylumbelliferone (4-MU) standard curve ranging from 1.0 nM to 50 μM was run in parallel for conversion of raw fluorescence data to absolute GCase activity (in the presence and absence of CBE) and expressed as nanomoles of 4-MU released per milligram of protein per hour (nmol/mg protein/hr). GCase levels and protein levels were calculated using Microsoft Excel (Redmond, Wash.) and GraphPad Prism version 4.02.

GCase = biological target: T1, GCase (Mus musculus, UniProt P17439); assay: GCase enhancement in tissues of orally dosed mice; conditions: for GCase increase: nine doses over 2 weeks, 24-hour washout
T1 construct: Liver, spleen, lung, and brain tissues were removed; from tissue; host or cells: brain, spleen, liver, lung of C57BL/6 mice
T1 sequence (P17439 20-515): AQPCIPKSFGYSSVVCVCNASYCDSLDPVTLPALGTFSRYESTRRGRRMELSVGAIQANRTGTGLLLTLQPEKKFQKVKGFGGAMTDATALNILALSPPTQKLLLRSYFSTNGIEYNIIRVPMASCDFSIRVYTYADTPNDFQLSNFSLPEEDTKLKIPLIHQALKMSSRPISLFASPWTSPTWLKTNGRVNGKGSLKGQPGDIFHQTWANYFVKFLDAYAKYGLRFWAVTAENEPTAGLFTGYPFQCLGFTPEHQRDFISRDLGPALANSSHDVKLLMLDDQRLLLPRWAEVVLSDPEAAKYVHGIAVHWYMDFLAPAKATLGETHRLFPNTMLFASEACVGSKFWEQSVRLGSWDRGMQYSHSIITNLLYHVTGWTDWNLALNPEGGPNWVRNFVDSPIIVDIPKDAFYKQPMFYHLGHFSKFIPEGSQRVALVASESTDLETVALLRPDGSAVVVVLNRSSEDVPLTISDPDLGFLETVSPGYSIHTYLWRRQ
Method: as §1, §2

[3] = mice, nine p.o. doses over 2 weeks, result in words

SMILES: O[C@@H]1[C@@H](CCl)CNC[C@H]1O [Compound B, (3R,4R,5S)-5-(chloromethyl)piperidine-3,4-diol]
- brain levels compared to Compound A [1]: even higher levels of Compound B were detected in brain than that observed following administration of the hydrochloride salt form of Compound A
- Concentration in GCase assays after dilution (value in parenthesis) ([2]; brain sample, 10 mg/kg p.o.): 0.9 nM
- Concentration in GCase assays after dilution (value in parenthesis) ([2]; brain sample, 100 mg/kg p.o.): 7.6 nM
- Concentration in GCase assays after dilution (value in parenthesis) ([2]; spleen sample, 10 mg/kg p.o.): 2.4 nM
- Concentration in GCase assays after dilution (value in parenthesis) ([2]; spleen sample, 100 mg/kg p.o.): 8 nM
- GCase increase (GCase; brain, 10 mg/kg (free base equivalent) p.o.): 2.3 -fold
- GCase increase (GCase; brain, 100 mg/kg (free base equivalent) p.o.): 3.5 -fold
- GCase enhancement at lower doses compared to IFG-tartrate (GCase; [3]): unexpectedly greater than that observed with IFG-tartrate even when far lower doses
- GCase enhancement in brain, spleen, liver and lung compared to control or IFG-tartrate (GCase; [3]): statistically significant greater GCase enhancement in brain, spleen, liver and lung as compared to mice administered control or IFG-tartrate
- GCase increase (GCase; spleen, 10 mg/kg (free base equivalent) p.o.): 1.4 -fold
- GCase increase (GCase; spleen, 100 mg/kg (free base equivalent) p.o.): 2.2 -fold
